The values that follow come from US4813876A, “Method of treating living pulp tissue” (Dentsply Research & Development Corp., priority 1987, dated 1989).

For this data set, the system named is L929 mouse fibroblast cells. Nature of the data set: Tissue culture MEM elution test (cytotoxicity). In kind it is cell-based. To be noted: 25 mg. The procedure: One accepted method for determining the necessary biocompatibility of various compositions toward living tissue is an in vitro cell culture biocompatibility method wherein samples of the compositions to be tested are extracted in a bovine serum solution in a Minimum Essential Medium (MEM), whereafter the bovine serum solution and specified animal cells, such as human (WI-38), L929 mouse fibroblast cells or their equivalent, are incubated in a MEM for a predetermined period of time, and the incubated cells are visually observed and graded for cytotoxic manifestations. See, for example, R. E. Wilsnack, Quantitative Cell Culture Biocompatibility Testing of Medical Devices and Correlation To Animal Tests, Biomat, Med. Dev. Art. Org., 4(3& 4), 235-261 (1976). In connection with the present compositions, the in vitro cell culture method preferably is performed using L929 mouse fibroblast cells which have been cultured in a growth medium consisting of 5% bovine serum solution in MEM, wherein the bovine serum solution initially was used to extract a specified mass of cured or uncured material, as the case may be, and wherein the cells were incubated at 37°±2° C. for a specified period of time, e.g., 24, 48 or 72 hours. The degree of toxicity may be stated as a function of the percentage of the cells which have been lysed or fixed over the test period. […]

As for `[Ca+2].[OH-].[OH-]` [Calcium Hydroxide, calcium hydroxide], where the note is “2 hours after extract placed on cells”, the “Cytotoxic manifestation (footnote ***)” value is given as “All cells dead after 2 hours”. In addition, the “24 hr results (% Lysed or fixed)” value (Table I, curing time 0 s, 24 hr) came out at 100%.
